Our source for the bioavailability values is US20030118653A1, “Quick dissolving oral mucosal drug delivery device with moisture barrier coating” (Lavipharm Laboratories Inc., priority 2001, published 2003).

This data set can be described thus: Bioavailability of sildenafil from film with water soluble inert filler. To be noted: incorporated in a film with water soluble inert filler xylitol. It counts as in vivo. The text has this:
A further parameter affecting the uptake of an active agent or combination of active agents from the quick dissolving oral mucosal drug delivery devices of the present invention is the manner in which the active agent or combination of active agents is dispersed in the delivery device. For example, the active agent or combination of active agents may be dispersed as colloidal particles or be microencapsulated within the delivery device or alternatively may be mixed throughout the delivery device as a reagent during casting. In another example, the active agent can form a solid dispersion with a water soluble inert filler for purposes of increasing the solubility of the active agent when released from the inner layer thereby enhancing bioavailability of the active agent. […] In another example, a bitter active agent can form saliva insoluble complex with water insoluble polymers for the purpose of taste masking.

Consider `CCCc1nn(C)c2c(=O)[nH]c(-c3cc(S(=O)(=O)N4CCN(C)CC4)ccc3OCC)nc12` [sildenafil], for which the bioavailability result is “enhance the bioavailability”.
